The term Ki denotes the equilibrium dissociation constant of an inhibitor or competing ligand from its target. By IC50 is commonly meant the midpoint of a concentration-inhibition curve.

Experimental findings from patent US20220024945A1, “THERAPEUTIC COMPOUNDS AND COMPOSITIONS, AND METHODS OF USE THEREOF” (Genentech, Inc., priority 2017, published 2022) are described below.

Assay [1] has as its target isolated recombinant JAK1 kinase domain (Homo sapiens, UniProt P23458). As to the kind of experiment: JAK enzyme assay (Caliper LabChip), JAK1 kinase domain. Format: biochemical. To be noted: ATP 25 μM; 1.5 nM JAK1; Morrison tight binding model.
Assay [2] has as its target isolated recombinant JAK2 kinase domain (Homo sapiens, UniProt O60674). Description: JAK enzyme assay (Caliper LabChip), JAK2 kinase domain. Conditions: ATP 25 μM, 0.2 nM JAK2, Morrison tight binding model.
Method: JAK Enzyme Assays were Carried Out as Follows:
The activity of the isolated recombinant JAK1 and JAK2 kinase domain was measured by monitoring phosphorylation of a peptide derived from JAK3 ([sequence] fluorescently labeled on the N-terminus with 5-carboxyfluorescein) using the Caliper LabChip® technology (Caliper Life Sciences, Hopkinton, Mass.). […] Reactions were incubated at 22° C. in 384-well polypropylene microtiter plates for 30 minutes and then stopped by addition of 25 μL of an EDTA containing solution (100 mM HEPES buffer (pH 7.2), 0.015% Brij-35, 150 mM EDTA), resulting in a final EDTA concentration of 50 mM. After termination of the kinase reaction, the proportion of phosphorylated product was determined as a fraction of total peptide substrate using the Caliper LabChip® 3000 according to the manufacturer's specifications.
The subject of assay [3] is JAK1-dependent STAT6 phosphorylation downstream of IL-13 stimulation, BEAS-2B cells. As to the kind of experiment: JAK1 pathway assay in cell lines: P-STAT6 in BEAS-2B cells + IL13. In kind it is cell-based. To be noted: BEAS-2B human bronchial epithelial cells, 1 hr compound preincubation, read-out: P-STAT6 BEAS2B + IL13 IC50. As to the method:
JAK1 Pathway Assay in Cell Lines was Carried Out as Follows:
Inhibitor potency (EC50) was determined in cell-based assays designed to measure JAK1 dependent STAT phosphorylation. As noted above, inhibition of IL-4, IL-13, and IL-9 signaling by blocking the Jak/Stat signaling pathway can alleviate asthmatic symptoms in pre-clinical lung inflammation models (Mathew et al., 2001, J Exp Med 193(9): 1087-1096; Kudlacz et. al., 2008, Eur J. Pharmacol 582(1-3): 154-161).
In one assay approach, TF-1 human erythroleukemia cells obtained from the American Type Culture Collection (ATCC; Manassas, Va.) were used to measure JAK1-dependent STAT6 phosphorylation downstream of IL-13 stimulation. Prior to use in the assays, TF-1 cells were starved of GM-CSF overnight in OptiMEM medium (Life Technologies, Grand Island, N.Y.) supplemented with 0.5% charcoal/dextran stripped fetal bovine serum (FBS), 0.1 mM non-essential amino acids (NEAA), and 1 mM sodium pyruvate. The assays were run in 384-well plates in serum-free OptiMEM medium using 300,000 cells per well. In a second assay approach, BEAS-2B human bronchial epithelial cells obtained from ATCC were plated at 100,000 cells per well of a 96-well plate one day prior to the experiment. The BEAS-2B assay was run in complete growth medium (bronchial epithelial basal medium plus bulletkit; Lonza; Basel, Switzerland).
Test compounds were serially diluted 1:2 in DMSO and then diluted 1:50 in medium just before use. Diluted compounds were added to the cells, for a final DMSO concentration of 0.2%, and incubated for 30 m (for the TF-1 assay) or 1 hr (for the BEAS-2B assay) at 37° C. Then, cells were stimulated with human recombinant cytokine at their respective EC90 concentrations, as previously determined for each individual lot. Cells were stimulated with […] (R&D Systems, Minneapolis, Minn.) for 15 m/at 37° C. The TF-1 cell reactions were stopped by the direct addition of 10× lysis buffer (Cell Signaling Technologies, Danvers, Mass.), whereas the BEAS-2B cell incubations were halted by the removal of medium and addition of 1× lysis buffer. The resultant samples were frozen in the plates at −80° C. Compound mediated inhibition of STAT6 phosphorylation was measured in the cell lysates using MesoScale Discovery (MSD) technology (Gaithersburg, Md.). EC50 values were determined as the concentration of compound required for 50% inhibition of STAT phosphorylation relative to that measured for the DMSO control.

Like-named read-outs stand apart in the source and are kept apart here.

isolated recombinant JAK1 kinase domain, sequence (P23458 875-1153 limits assumed): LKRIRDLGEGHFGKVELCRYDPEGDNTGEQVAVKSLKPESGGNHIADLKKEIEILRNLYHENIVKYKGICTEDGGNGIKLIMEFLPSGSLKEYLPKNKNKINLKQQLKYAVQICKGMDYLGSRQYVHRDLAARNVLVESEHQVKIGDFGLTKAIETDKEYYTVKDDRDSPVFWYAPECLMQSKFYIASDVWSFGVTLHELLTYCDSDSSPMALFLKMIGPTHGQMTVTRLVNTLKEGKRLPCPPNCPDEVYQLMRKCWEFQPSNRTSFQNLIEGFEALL
isolated recombinant JAK2 kinase domain, sequence (O60674 849-1124 limits assumed): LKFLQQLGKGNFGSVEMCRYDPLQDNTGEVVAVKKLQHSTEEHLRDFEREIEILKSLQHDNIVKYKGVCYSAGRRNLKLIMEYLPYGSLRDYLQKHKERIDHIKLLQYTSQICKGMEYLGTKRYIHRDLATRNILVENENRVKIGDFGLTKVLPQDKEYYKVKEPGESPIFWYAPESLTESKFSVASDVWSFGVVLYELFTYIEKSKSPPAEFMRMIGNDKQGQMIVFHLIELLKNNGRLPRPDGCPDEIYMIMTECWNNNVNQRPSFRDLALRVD

On to `CC[C@H](O)Cn1cc(NC(=O)c2cnn3cccnc23)c(-c2cc(SC)ccc2OC(F)F)n1` (racemic) [Example 41, N-[3-[2-(difluoromethoxy)-5-methylsulfanyl-phenyl]-1-[rac-(2S)-2-hydroxybutyl]pyrazol-4-yl]pyrazolo[1,5-a]pyrimidine-3-carboxamide], for which the Ki in assay [1] worked out at 0.35 nM; in assay [2], 0.25 nM. Further, the IC50 in assay [3] (Homo sapiens, BEAS-2B, 1 h) is 13 nM.
Take `CN1CCCC(Sc2ccc(OC(F)F)c(-c3n[nH]cc3NC(=O)c3cnn4cccnc34)c2)C1` (single isomer, unassigned) [Example 31, N-[3-[2-(difluoromethoxy)-5-[(1-methyl-3-piperidyl)sulfanyl]phenyl]-1H-pyrazol-4-yl]pyrazolo[1,5-a]pyrimidine-3-carboxamide]: the results for the Ki in assay [1] and in assay [2] were 9.73 nM and 3.47 nM, respectively.
In the case of `O=C(Nc1c[nH]nc1-c1cc(SC2CCCNC2)ccc1OC(F)F)c1cnn2cccnc12` (single isomer, unassigned) [Example 36, N-[3-[2-(difluoromethoxy)-5-(3-piperidylsulfanyl)phenyl]-1H-pyrazol-4-yl]pyrazolo[1,5-a]pyrimidine-3-carboxamide], the Ki in assay [1] came out at 91.5 nM; in assay [2] it was 51.7 nM. The IC50 in assay [3] is > 1000 nM.
Consider `O=C(Nc1c[nH]nc1-c1cc(SC2CCCNC2)ccc1OC(F)F)c1cnn2cccnc12` (single isomer, unassigned) [Example 37, N-[3-[2-(difluoromethoxy)-5-(3-piperidylsulfanyl)phenyl]-1H-pyrazol-4-yl]pyrazolo[1,5-a]pyrimidine-3-carboxamide], for which the Ki was found to be 1.16 nM in assay [1] and 0.57 nM in assay [2]. For the same molecule, the IC50 in assay [3] came out at 222 nM.
Regarding `CN1CCCC(Sc2ccc(OC(F)F)c(-c3n[nH]cc3NC(=O)c3cnn4cccnc34)c2)C1` (single isomer, unassigned) [Example 38, N-[3-[2-(difluoromethoxy)-5-[(1-methyl-3-piperidyl)sulfanyl]phenyl]-1H-pyrazol-4-yl]pyrazolo[1,5-a]pyrimidine-3-carboxamide], the Ki in assay [1] was 2.93 nM; in assay [2], 1.38 nM. Besides, in assay [3] (Homo sapiens, BEAS-2B, 1 h), the IC50 came to 56 nM.
Take `O=C(Nc1cn(C2CN(C3CC(O)C3)C2)nc1-c1cc(SC2COC2)ccc1OC(F)F)c1cnn2cccnc12` (single isomer, unassigned) [Example 39, N-[3-[2-(difluoromethoxy)-5-(oxetan-3-ylsulfanyl)phenyl]-1-[1-(3-hydroxycyclobutyl)azetidin-3-yl]pyrazol-4-yl]pyrazolo[1,5-a]pyrimidine-3-carboxamide]: the figures for the inhibition constant Ki in assay [1] and in assay [2] were 1.44 nM and 1.18 nM, respectively. The IC50 in assay [3] (Homo sapiens, BEAS-2B, 1 h) was 35 nM.
With `O=C(Nc1cn(C2CN(C3CC(O)C3)C2)nc1-c1cc(SC2COC2)ccc1OC(F)F)c1cnn2cccnc12` (single isomer, unassigned) [Example 40, N-[3-[2-(difluoromethoxy)-5-(oxetan-3-ylsulfanyl)phenyl]-1-[1-(3-hydroxycyclobutyl)azetidin-3-yl]pyrazol-4-yl]pyrazolo[1,5-a]pyrimidine-3-carboxamide], the Ki in assay [1] was found to be 1.18 nM; in assay [2], 1.02 nM. The IC50 in assay [3] stood at 45 nM.
Take `CC(C)Sc1ccc(OC(F)F)c(-c2nn(Cc3cn(C4CCN([C@H]5CCOC5)CC4)nn3)cc2NC(=O)c2cnn3cccnc23)c1` (stereo in doubt) [Example 11, N-[3-[2-(difluoromethoxy)-5-isopropylsulfanyl-phenyl]-1-[[1-[1-[rac-(3S)-tetrahydrofuran-3-yl]-4-piperidyl]triazol-4-yl]methyl]pyrazol-4-yl]pyrazolo[1,5-a]pyrimidine-3-carboxamide; formic acid]: the inhibition constant Ki in assay [1] came to 0.69 nM; in assay [2], 0.49 nM. In addition, the IC50 in assay [3] (Homo sapiens, BEAS-2B, 1 h) came to 23 nM.
On the same counts, the results for `CC(C)Sc1ccc(OC(F)F)c(-c2nn(Cc3cn(C4CCN([C@@H]5CCOC5)CC4)nn3)cc2NC(=O)c2cnn3cccnc23)c1` (stereo in doubt) [Example 12, N-[3-[2-(difluoromethoxy)-5-isopropylsulfanyl-phenyl]-1-[[1-[1-[rac-(3R)-tetrahydrofuran-3-yl]-4-piperidyl]triazol-4-yl]methyl]pyrazol-4-yl]pyrazolo[1,5-a]pyrimidine-3-carboxamide; formic acid] are 0.64 nM, 0.46 nM and 22 nM.
On to `O=C(Nc1cn(Cc2cn(C3CCN([C@H]4CCOC4)CC3)nn2)nc1-c1cc(SC2CC2)ccc1OC(F)F)c1cnn2cccnc12` (stereo in doubt) [Example 13, N-[3-[5-cyclopropylsulfanyl-2-(difluoromethoxy)phenyl]-1-[[1-[1-[rac-(3S)-tetrahydrofuran-3-yl]-4-piperidyl]triazol-4-yl]methyl]pyrazol-4-yl]pyrazolo[1,5-a]pyrimidine-3-carboxamide], for which the Ki in assay [1] is 0.56 nM; in assay [2], 0.36 nM. Further, in assay [3] (Homo sapiens, BEAS-2B, 1 h), the IC50 came to 17 nM.
With `O=C(Nc1cn(Cc2cn(C3CCN([C@@H]4CCOC4)CC3)nn2)nc1-c1cc(SC2CC2)ccc1OC(F)F)c1cnn2cccnc12` (stereo in doubt) [Example 14, N-[3-[5-cyclopropylsulfanyl-2-(difluoromethoxy)phenyl]-1-[[1-[1-[rac-(3R)-tetrahydrofuran-3-yl]-4-piperidyl]triazol-4-yl]methyl]pyrazol-4-yl]pyrazolo[1,5-a]pyrimidine-3-carboxamide], the Ki in assay [1] was 0.4 nM; in assay [2], 0.29 nM. Also, the IC50 in assay [3] (Homo sapiens, BEAS-2B, 1 h) came to 13 nM.
As to `O=C(Nc1cn(Cc2cn(C3CCN([C@H]4CCOC4)CC3)nn2)nc1-c1cc(SC2COC2)ccc1OC(F)F)c1cnn2cccnc12` (stereo in doubt) [Example 20, N-[3-[2-(difluoromethoxy)-5-(oxetan-3-ylsulfanyl)phenyl]-1-[[1-[1-[rac-(3S)-tetrahydrofuran-3-yl]-4-piperidyl]triazol-4-yl]methyl]pyrazol-4-yl]pyrazolo[1,5-a]pyrimidine-3-carboxamide; formic acid], the Ki was 0.66 nM in assay [1] and 0.44 nM in assay [2]. In assay [3] (Homo sapiens, BEAS-2B, 1 h), the IC50 worked out at 67 nM.
With `O=C(Nc1cn(Cc2cn(C3CCN([C@@H]4CCOC4)CC3)nn2)nc1-c1cc(SC2COC2)ccc1OC(F)F)c1cnn2cccnc12` (stereo in doubt) [Example 21, N-[3-[2-(difluoromethoxy)-5-(oxetan-3-ylsulfanyl)phenyl]-1-[[1-[1-[rac-(3R)-tetrahydrofuran-3-yl]-4-piperidyl]triazol-4-yl]methyl]pyrazol-4-yl]pyrazolo[1,5-a]pyrimidine-3-carboxamide], the Ki worked out at 0.66 nM in assay [1] and 0.38 nM in assay [2]. Further, the IC50 in assay [3] (Homo sapiens, BEAS-2B, 1 h) was 57 nM.
Take `O=C(Nc1c[nH]nc1-c1cc(SC2CCOCC2)ccc1OC(F)F)c1cnn2cccnc12` [Example 1, N-[3-[2-(difluoromethoxy)-5-tetrahydropyran-4-ylsulfanyl-phenyl]-1H-pyrazol-4-yl]pyrazolo[1,5-a]pyrimidine-3-carboxamide]: the Ki was 0.4 nM in assay [1] and 0.15 nM in assay [2]. Further, the IC50 in assay [3] (Homo sapiens, BEAS-2B, 1 h) worked out at 11 nM.
On to `O=C(Nc1c[nH]nc1-c1cc(SC2CCOC2)ccc1OC(F)F)c1cnn2cccnc12` (centres unmarked) [Example 8, N-[3-[2-(difluoromethoxy)-5-tetrahydrofuran-3-ylsulfanyl-phenyl]-1H-pyrazol-4-yl]pyrazolo[1,5-a]pyrimidine-3-carboxamide], for which the Ki in assay [1] came to 0.45 nM. Besides, the IC50 in assay [3] (Homo sapiens, BEAS-2B, 1 h) came out at 19 nM.
With `Cn1cc(NC(=O)c2cnn3cccnc23)c(-c2cc(SC3COC3)ccc2OC(F)F)n1` [Example 15, N-[3-[2-(difluoromethoxy)-5-(oxetan-3-ylsulfanyl)phenyl]-1-methyl-pyrazol-4-yl]pyrazolo[1,5-a]pyrimidine-3-carboxamide], the Ki in assay [2] stood at 0.13 nM. Moreover, the 50% inhibitory concentration (IC50) in assay [3] (Homo sapiens, BEAS-2B, 1 h) is 14 nM.
In the case of `CSc1ccc(OC(F)F)c(-c2nn(C3CCOCC3)cc2NC(=O)c2cnn3cccnc23)c1` [Example 16, N-[3-[2-(difluoromethoxy)-5-methylsulfanyl-phenyl]-1-tetrahydropyran-4-yl-pyrazol-4-yl]pyrazolo[1,5-a]pyrimidine-3-carboxamide], the inhibitory constant (Ki) in assay [2] turned out to be 0.91 nM. In addition, in assay [3] (Homo sapiens, BEAS-2B, 1 h), the IC50 was 31 nM.
